Test results from patent publication US7592188B2, “Live cell biosensors” (The Scripps Research Institute, priority 2004, dated 2009).
Entries after “also recorded” stand apart in the source; their conditions may differ.

Legend:
[1] = system: Rho kinase; test: Extension and retraction of protrusions with Rho kinase inhibitor; format: cell-based
Text: These possibilities were distinguished by blocking retraction using an inhibitor of Rho kinase (Y27632).

[2] = Photophysical properties of dyes in various solvents (absorbance, emission, quantum yield); format: physicochemical; set-up: ε × F / ε × Φ: unit not given here
Protocol: Analytical grade reagents were purchased from major suppliers. […] Emission and excitation spectra were obtained using a Spex Fluorolog 2 spectrofluorometer at 23° C. […] Demas et al., J. Phys. […] All operations with dyes were performed under dim light. Flasks containing dyes were wrapped with aluminum foil.

[3] = Dye photo-bleaching under tungsten lamp irradiation; format: physicochemical
Protocol: Photo-bleaching. All samples contained 1 mM dye in a final volume of 10 mL. For nitrogen and oxygen saturation the samples were bubbled with solvent-saturated gas for 30 min. A 90 W halogen tungsten lamp was employed for irradiation, with a fan used for cooling. The temperature of samples was 25±1° C. during reactions. The absorption spectrum of each sample was measured before irradiation and after every 10 h period. For the trapping experiment thioanisole (1.0 M) was added to oxygen-saturated butanol solution of dye 1b. After 60 h of irradiation the reaction mixture was analyzed by GC-MS for products formed. The products, methylphenylsulfoxide and methylphenyl sulfone, were identified by comparison with authentic samples.
Dyes used in living cells must be photostable to provide many sequential images and to obtain sufficient light from minimal amounts of exogenous labeled material. The photostability of the new dyes was characterized by exposing them to constant illumination from a tungsten lamp filtered through glass, a broad spectrum light source that provided essentially equal intensity throughout the spectral range where the dyes would be irradiated in vivo. A fan was used to prevent heating, and dye solutions were adjusted for equal maximal absorbance, kept below 1 μM to minimize the inner filter effect. […] Photo-bleaching followed first-order kinetics in all cases.

[4] = Quantum yield of triplet state formation; format: physicochemical; details: in ethanol
[5] = target: T1, Rac (Homo sapiens, UniProt P63000); test: Specificity of I-SO WASP biosensor for activated GTPases; format: binding; details: concentrations well above physiological levels
T1 construct: 6His; made in house; host or cells: E. coli BL21DE3, only by the words 'analogous procedures'
Protocol: (§1) Further studies were conducted using the I—SO dye 4b attached at position F271 C of the WASP fragment. This biosensor had properties similar to the S—SO biosensor described above. […] To determine the specificity of the biosensor, interactions with different activated GTPases were examined. The biosensor distinguished proteins closely related to Cdc42 from other members of the Rho family.

[6] = target: T2, RhoA (Homo sapiens, UniProt P61586); test: as above; format: binding; details: concentrations well above physiological levels
T2 construct: 6His; made in house; host or cells: E. coli BL21DE3, only by the words 'analogous procedures'
Protocol: as §1

[7] = target: TC10 (Homo sapiens, UniProt P17081); test: as above; format: binding
Protocol: as §1

[8] = system: Cdc42; test: MeroCBD biosensor imaging of Cdc42 activation in living cells; format: cell-based; details: in words
Text: The I—SO labeled WASP fragment provided a straightforward means to assay Cdc42 activation in cell lysates. By simply adding the biosensor to the lysate, the fluorescence readout of Cdc42 activation. This method was used to determine the kinetics of Cdc42 activation in neutrophils after stimulation with chemoattractant fMetLeuPhe (FMLP) peptide. Results obtained paralleled those previously reported using well-established methods (Benard et al., J. Biol. Chem. 275: 36457 (2000). Fluorescence of the biosensor was also used to monitor the real-time kinetics of Cdc42 GDP/GTP exchange in vitro. Because the labeled WASP fragment responded to activated Cdc42 through fluorescence intensity modulation, a ratiometric imaging approach was used to correct for effects of varying cell thickness, uneven illumination, and other factors that could affect imaging of dye intensity (Bright et al., Methods Cell Biol. 14: 157 (1989). The biosensor was fused to enhanced green fluorescent protein (EGFP) to provide a fluorescence signal insensitive to Cdc42 binding, but with the same subcellular distribution as the sensitive dye. The dye image could be divided by the EGFP image to normalize changes in dye intensity not originating from Cdc42 binding. […] Fluorescence response and Cdc42 binding of the biosensor remained intact after these modifications. […]

TC10, sequence (P17081 whole entry, species assumed): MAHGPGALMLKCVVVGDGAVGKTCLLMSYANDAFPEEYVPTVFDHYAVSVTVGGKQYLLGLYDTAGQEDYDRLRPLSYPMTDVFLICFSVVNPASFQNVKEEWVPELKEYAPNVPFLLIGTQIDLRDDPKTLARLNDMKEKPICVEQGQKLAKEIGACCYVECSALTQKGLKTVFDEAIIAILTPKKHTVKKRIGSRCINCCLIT
T2 sequence (P61586 whole entry, species assumed): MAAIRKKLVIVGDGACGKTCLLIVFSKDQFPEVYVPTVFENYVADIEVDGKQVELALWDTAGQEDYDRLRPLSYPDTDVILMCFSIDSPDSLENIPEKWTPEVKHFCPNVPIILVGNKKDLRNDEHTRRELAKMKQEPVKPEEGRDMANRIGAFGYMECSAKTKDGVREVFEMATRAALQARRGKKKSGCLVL

Molecule | Abs. λmax ([2]; solvent BuOH) | Emission λmax ([2]; solvent BuOH) | Φ (quantum yield of fluorescence) ([2]; solvent BuOH) | ε (molar extinction coefficient) ([2]; solvent BuOH) | ε × F ([2]; solvent BuOH) | Abs. λmax ([2]; solvent C6H6) | Emission λmax ([2]; solvent C6H6) | Φ (quantum yield of fluorescence) ([2]; solvent C6H6) | ε (molar extinction coefficient) ([2]; solvent C6H6) | ε × F ([2]; solvent C6H6) | Abs. λmax ([2]; solvent DMF) | Emission λmax ([2]; solvent DMF) | Φ (quantum yield of fluorescence) ([2]; solvent DMF) | ε (molar extinction coefficient) ([2]; solvent DMF) | ε × F ([2]; solvent DMF) | Abs. λmax ([2]; solvent MeOH) | Emission λmax ([2]; solvent MeOH) | Φ (quantum yield of fluorescence) ([2]; solvent MeOH) | ε (molar extinction coefficient) ([2]; solvent MeOH) | ε × F ([2]; solvent MeOH) | further results
C[C@@H](N)[C@H]1CC[C@H](C(=O)Nc2ccncc2)CC1 [Y27632] |  |  |  |  |  |  |  |  |  |  |  |  |  |  |  |  |  |  |  |  | effect on protrusions [1]: caused protrusions to continue expanding even after Cdc42 activity decreased
CCN1/C(=C\C=C\C=C2C(=O)N(C)C(=S)N(C)C2=O)Sc2ccccc21 [dye 1b, 1,3-Dimethyl-5-[(2E,4E)-4-(3-ethyl-1,3-benzothiazol-2(3H)-ylidene)-but-2-enylidene]-2-thioxodihydropyrimidine-4,6(1H,5H)-dione] | 595 nm | 613 nm | 0.26 | (188000) | 49000 | 600 nm | 617 nm | 0.37 | (184000) | 68000 | 595 nm | 613 nm | 0.32 | (194000) | 62000 | 583 nm | 606 nm | 0.13 | (134000) | 18000 | Abs. λmax ([2]; solvent OcOH): 598 nm; Emission λmax ([2]; solvent OcOH): 615 nm; Φ (quantum yield of fluorescence) ([2]; solvent OcOH): 0.52; ε (molar extinction coefficient) ([2]; solvent OcOH): (220000); ε × F ([2]; solvent OcOH): 115000; Absolute rate constant of dye photo-bleaching, kph × 10^6 ([3]; BuOH): 5.2 s^−1; Absolute rate constant of dye photo-bleaching, kph × 10^6 ([3]; MeOH): 4.3 s^−1; ΦT, quantum yield of triplet state formation [4]: 0.008
CN1C(=O)C(=C/C=C/C=C2\N(C)c3ccccc3C2(C)C)C(=O)N(C)C1=S [dye 3a, 1,3-Dimethyl-2-thioxo-5-[(2E,4Z)-4-(1,3,3-trimethyl-1,3-dihydro-2H-indol-2-ylidene)but-2-enylidene]dihydropyrimidine-4,6(1H,5,H)-dione] | 589 nm | 609 nm | 0.61 | (190000) | 116000 | 584 nm | 605 nm | 0.20 | (127000) | 26000 | 589 nm | 611 nm | 0.94 | (183000) | 172000 | 583 nm | 603 nm | 0.26 | (173000) | 45000 | Abs. λmax ([2]; solvent OcOH): 590 nm; Emission λmax ([2]; solvent OcOH): 609 nm; Φ (quantum yield of fluorescence) ([2]; solvent OcOH): 0.99; ε (molar extinction coefficient) ([2]; solvent OcOH): (180000); ε × F ([2]; solvent OcOH): 178000; Absolute rate constant of dye photo-bleaching, kph × 10^6 ([3]; BuOH): 0.78 s^−1; Absolute rate constant of dye photo-bleaching, kph × 10^6 ([3]; MeOH): 0.18 s^−1; ΦT, quantum yield of triplet state formation [4]: 0.003
I—SO-WASP biosensor: I—SO dye attached at position F271C of the WASP fragment (conjugate, left off: small tags and cut ends, I—SO dye attached at position F271C of the WASP fragment) DIQNPDITSSRYRGLPAPGPSPADKKRSGKKKISKADIGAPSGFKHVSHVGWDPQNGFDVNNLDPDLRSLCSRAGISEAQLTDAETSKLIYDFIEDQGGLEAVRQEMRRQEPLPPPPPPS |  |  |  |  |  |  |  |  |  |  |  |  |  |  |  |  |  |  |  |  | interaction with Rac [5]: did not interact; interaction with RhoA [6]: did not interact; response to TC10 [7]: responded
MeroCBD (conjugate, left off: large carriers) DIQNPDITSSRYRGLPAPGPSPADKKRSGKKKISKADIGAPSGFKHVSHVGWDPQNGFDVNNLDPDLRSLCSRAGISEAQLTDAETSKLIYDFIEDQGGLEAVRQEMRRQEPLP |  |  |  |  |  |  |  |  |  |  |  |  |  |  |  |  |  |  |  |  | Cdc42 activation reported by biosensor in living cells [8]: showed localized Cdc42 activation even in unstimulated cells; also recorded: consistently showed activation in the trans-Golgi apparatus of endothelial cells
